{
  "source": "patent US20210206820A1",
  "about": "(Purdue Research Foundation, priority 2018, published 2021)",
  "key": {"[1]": {"tested_on": "fracture callus of fractured femur", "assay": "Femur fracture model, microCT of the fracture callus (BV/TV, TbTh, BV, TbSp)", "type": "in vivo, Swiss Webster mice", "text": "All in vivo data included herein are from swiss Webster mice. All mice received an osteotomy on their right femur and received subcutaneous drug administration daily for either 2, 3 or 4 weeks, as indicated, for each compound. 1× concentration represents 1 nmol/day, 10× represents 10 nmol/day, 100× represents 100 nmol/day most studies have an n of 5.\nThe term “BV/TV” means the bone volume divided by total volume of the 100 thickest micro CT slices of the fracture callus.\nThe term “TbTh” means the trabecular thickness of the 100 thickest micro CT slices of the fracture callus.\nThe term “[…]” means the overall bone volume of the 100 thickest micro CT slices of the fracture callus.\nThe term “TbSp” means the spacing between the trabecula in the 100 thickest micro CT slices of the fracture callus.\n(§1) The targeted conjugates were synthesized using standard Fmoc solid-phase peptide synthesis, as described above. To ensure the conjugates' activity, mouse pre-osteoblast ([…]) cells were treated with the targeted and untargeted compounds for three days at concentrations from 1 pM to 100 nM. After three days of treatment, the cells were harvested, and the RNA was purified from the cells. Expression levels of ALP, RUNx2 (transcription factor for osteoblast differentiation), osterix (OSX), osteopontin (OPN), collagen 1A (Col-1A), OPG, RANKL, sclerostin gene (SOST), and OC were quantified via quantitative reverse transcription polymerase chain reaction (RT-qPCR). Once the biological activity of the conjugates was confirmed, they were tested in vivo in a fracture model. Aseptic surgical techniques were used to place a 23-gage needle as in intramedullary nail in the femur of anesthetized, 12-week-old Swiss Webster mice for internal fixation before fracture. Femur fractures were induced using a drop weight fracture device from RISystem. The mice received buprenorphine for three days post fracture. The mice were dosed subcutaneously each day for three weeks or 17 days. Fracture healing was assessed using microCT (Scanco Medical Ag). Morphometric parameters were quantified in the 100 widest slices of the fracture callus. Trabecular thickness (TbTh), trabecular spacing (TbSp), total volume (TV), and volume of calcified callus (BV) were calculated. Fractured femurs were tested for strength in a four-point bend to failure using an Electro Force TestBench (TA Instruments). Lower supports were 10 mm apart on the anterior face of the femur in contact with the proximal and distal diaphysis. Upper supports were 4 mm apart and spanned the entire fracture callus on the diaphysis. Force was applied from the posterior face of the femur with a displacement rate of 0.3 mm/sec. Peak load, yield load, stiffness, displacement post yield, work to fracture, and deformation data were generated. Statistical analysis was performed using a two-way analysis of variance (ANOVA) and a Tukey post-hoc analysis with significance reported at the 95% confidence level. All animal experiments were performed in accordance with protocols approved by Purdue University's Institutional Animal Care and Use Committee (IACUC)."}, "healed fractured femur": {"tested_on": "healed fractured femur", "assay": "Postmortem four-point bend of the healed femur (peak/max load, stiffness, work to fracture)", "type": "in vivo, Swiss Webster mice", "details": "for Bone strength (Max Load, Work to Fracture): n=5", "protocol": "The term “Peak Load” means a postmortem 4 point bend of the healed femur. Peak load represents the maximum force the healed femur withstood before it refractured.\nas §1, with “The mice were dosed subcutaneously each day for three weeks or 17 days.” left out\nReferring to FIGS. 26a, 26b, and 26c, in vivo fracture healing efficacy of VIP_mp4_(D)E10 conjugate on Swiss Webster fracture-bearing mice (n=5) after 3 weeks was reflected as BV/TV, Max Load, and Work to Fracture respectively. […]"}, "VPAC-1": {"biological_target": "T1, VPAC-1 (Homo sapiens, UniProt P32241)", "T1 sequence (P32241 31-457)": "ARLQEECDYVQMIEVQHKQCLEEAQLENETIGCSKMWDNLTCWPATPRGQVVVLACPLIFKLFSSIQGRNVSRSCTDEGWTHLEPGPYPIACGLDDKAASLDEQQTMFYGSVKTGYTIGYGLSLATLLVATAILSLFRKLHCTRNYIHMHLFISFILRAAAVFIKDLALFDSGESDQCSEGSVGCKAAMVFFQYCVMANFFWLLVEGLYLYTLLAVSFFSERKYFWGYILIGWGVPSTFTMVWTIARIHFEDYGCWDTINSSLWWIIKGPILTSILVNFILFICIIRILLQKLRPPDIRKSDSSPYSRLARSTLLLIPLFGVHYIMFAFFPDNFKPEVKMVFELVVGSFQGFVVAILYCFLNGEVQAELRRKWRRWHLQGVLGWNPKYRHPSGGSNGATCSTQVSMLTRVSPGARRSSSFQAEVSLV", "details": "VIP compared with PACAP; cited from earlier work"}, "VPAC-2": {"biological_target": "T2, VPAC-2 (Homo sapiens, UniProt P41587)", "T2 sequence (P41587 24-438)": "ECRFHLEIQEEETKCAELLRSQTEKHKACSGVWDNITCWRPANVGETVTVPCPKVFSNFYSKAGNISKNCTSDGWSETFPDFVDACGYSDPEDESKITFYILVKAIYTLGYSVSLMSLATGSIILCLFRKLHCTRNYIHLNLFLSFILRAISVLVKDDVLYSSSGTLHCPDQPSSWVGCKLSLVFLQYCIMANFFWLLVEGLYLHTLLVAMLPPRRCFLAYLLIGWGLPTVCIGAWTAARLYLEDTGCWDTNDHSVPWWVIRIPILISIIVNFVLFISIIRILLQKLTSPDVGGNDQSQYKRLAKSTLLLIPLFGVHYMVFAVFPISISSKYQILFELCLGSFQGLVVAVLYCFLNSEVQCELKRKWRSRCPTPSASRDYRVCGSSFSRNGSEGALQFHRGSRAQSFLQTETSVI", "details": "VIP compared with PACAP; cited from earlier work"}, "[2]": {"tested_on": "fracture callus of fractured femur", "assay": "Femur fracture model, microCT of the fracture callus (BV/TV, TbTh, BV, TbSp)", "type": "in vivo, Swiss Webster mice", "details": "local injections"}, "[3]": {"tested_on": "pre-osteoblastic cell line MC3T3-E1", "assay": "Alkaline phosphatase (ALP) activity of pre-osteoblastic cells after 7 days exposure", "type": "cell-based, mouse", "details": "0.1-5 nM in culture media for 7 days, vs DMSO alone"}, "[4]": {"details": "3 weeks, 0.1, 1, 10 nmol per day sc, n=5"}, "[5]": {"details": "4 weeks, daily sc, various concentrations from 1 to 100 nmol/day"}, "[6]": {"details": "2 weeks, daily sc, 1 to 100 nmol/day"}},
  "note": "Primed or numbered codes have the meaning given here. Where no end group is shown, it is not given here. [ ]: non-standard residue; d: D form. PEG2′ = PEG2 spacer",
  "data": [
    {"compound": "CGRP (D)E10: full natural 37 amino acid CGRP, cyclized 2-7, C-terminal 4 minipeg spacers and ten D glutamic acids", "values": [
      {"measurement": "Bone density (BV/TV) at the fracture calluses", "setting": "[1]; [4]", "result": "raises bone density"},
      {"measurement": "Bone volume (BV)", "setting": "[1]; [4]", "result": "stimulates more bone to be generated"},
      {"measurement": "Bone strength (Max Load, Work to Fracture)", "setting": "healed fractured femur; 3 weeks, 0.1, 1, 10 nmol per day sc", "result": "raises bone strength"}
    ]},
    {"compound": "CBM D10: collagen binding motif of osteopontin conjugated with 10 aspartate acids", "values": [
      {"measurement": "BV/TV", "setting": "[1]; 3 weeks, 0.1, 1 and 10 nmol/day", "result": "dose dependent manner"}
    ]},
    {"compound": "Pituitary Adenylyl Cyclase Activating Peptide [PACAP]", "values": [
      {"measurement": "Affinity for VPAC-1", "setting": "VPAC-1", "result": "equal affinity"},
      {"measurement": "Affinity for VPAC-2", "setting": "VPAC-2", "result": "equal affinity"}
    ]},
    {"compound": "Cc1ncc(CO)c(C)c1O", "note": "[DOP, 4-deoxypyridoxine]", "values": [
      {"measurement": "Fracture healing", "setting": "[2]", "result": "acceleration of fracture healing"}
    ]},
    {"compound": "pBMP9 D10: 23-residue peptide from the knuckle epitope of human BMP-9 targeted with D10 (CGGKVGKACCVPTKLSPISVLYK[miniPEG][miniPEG][miniPEG][miniPEG]DDDDDDDDDD; cysteine pairing not given here)", "values": [
      {"measurement": "Bone volume (BV)", "setting": "[1]; 4 weeks, daily sc, 1, 10, 100 nmol/day", "result": "dose dependent manner"},
      {"measurement": "BV/TV", "setting": "[1]; [5]", "result": "dose dependent manner"}
    ]},
    {"compound": "Ghrelin-D10: Ghrelin D10 with Serine (Ser)-3 replaced with diaminopropinoic acid", "values": [
      {"measurement": "BV/TV", "setting": "[1]; [5]", "result": "dose dependent manner"}
    ]},
    {"compound": "Preptin-D10: Preptin conjugated with 10 aspartate acids, SEQ ID NO: 3 (HDVSTSQAVLPDDFPRYDDDDDDDDDD; Preptin D10)", "values": [
      {"measurement": "Bone volume (BV)", "setting": "[1]; 2 weeks, daily sc, 1, 10, 100 nmol/day", "result": "dose dependent manner"},
      {"measurement": "BV/TV", "setting": "[1]; [6]", "result": "dose dependent manner"},
      {"measurement": "TbTh", "setting": "[1]; [6]", "result": "dose dependent manner"}
    ]},
    {"compound": "BFP-D10: bone forming peptide conjugated with 10 aspartate acids, SEQ ID NO: 1 DDDDDDDDDDGQGFSYPYKAVFSTQ (BFP D10)", "values": [
      {"measurement": "BV/TV", "setting": "[1]; [6]", "result": "dose dependent manner"},
      {"measurement": "TbSp", "setting": "[1]; [6]", "result": "dose dependent manner"},
      {"measurement": "Peak load of fractured femurs, ranking as compared to PBS", "setting": "healed fractured femur; 100 nmol/day (100×), after 2 weeks", "result": "obtained the maximum peak load"}
    ]},
    {"compound": "P4 D10: P4 (knuckle epitope fragment of hBMP-2) conjugated with 10 aspartate acids (HKIPKASSVPTELSAISTLYLDDDDDDDDDD; P4 D10-a BMP2 fragment)", "values": [
      {"measurement": "Bone volume (BV)", "setting": "[1]; 4 weeks, 1 nmol/day", "result": "healing was reflected"},
      {"measurement": "BV/TV", "setting": "[1]; [5]", "result": "dose dependent manner"}
    ]},
    {"compound": "substance P D10: substance P with 4 mini PEG linker and conjugated with 10 aspartate acids (DDDDDDDDDDRPKPQQFFGLM; 4 mini PEG linker; substance P 4 mini PEG D10 with; (10)..(11) 4 mini PEG linker)", "values": [
      {"measurement": "BV/TV", "setting": "[1]; [5]", "result": "dose dependent manner"},
      {"measurement": "Peak load the healed femur can withstand", "setting": "healed fractured femur; 10× (10 nmol/day), 4 weeks", "result": "30-35 Newtons"}
    ]},
    {"compound": "CC(C)Oc1ccc(-c2nc(-c3cccc4c3CC[C@@H]4NCCO)no2)cc1C#N", "note": "[ozanimod, Ozanimod]", "values": [
      {"measurement": "Alkaline phosphatase (ALP) activity", "setting": "[3]", "result": "boost"},
      {"measurement": "Fracture healing", "setting": "[2]", "result": "acceleration of fracture healing"}
    ]},
    {"compound": "OGP-D10: osteogenic growth peptide conjugated with 10 aspartate acids, SEQ ID NO: 2 DDDDDDDDDDALKRQGRTLYGFGG (OGP D10)", "values": [
      {"measurement": "BV/TV", "setting": "[1]; [6]", "result": "dose dependent manner"},
      {"measurement": "TbSp", "setting": "[1]; [6]", "result": "dose dependent manner"},
      {"measurement": "TbTh", "setting": "[1]; [6]", "result": "dose dependent manner"}
    ]},
    {"compound": "MGF D10: Mechano-growth factor conjugated with 10 aspartate acids, SEQ ID NO: 11 DDDDDDDDDDYQPPSTNKNTKSQRRKGSTFEEHK (Mechano-growth factor (MGF) D10, an IGF-I fragment)", "values": [
      {"measurement": "BV/TV", "setting": "[1]; [5]", "result": "dose dependent manner"}
    ]},
    {"compound": "Amylin(1-8)-D10: amino acid 1-8 of native amylin attached to 4 peg2 spacers then ten aspartic acid (KCNTATCA[PEG2′][PEG2′][PEG2′][PEG2′]DDDDDDDDDD; not fully specified (bridges); ends and bridges not checked; UniProt P10997 34-41, looked up, fragment)", "values": [
      {"measurement": "Bone density (BV/TV) at the fracture calluses", "setting": "[1]; 3 weeks, 1, 10, 100 nmol per day sc, n=5", "result": "raises bone density"},
      {"measurement": "Bone strength (Max Load, Work to Fracture)", "setting": "healed fractured femur; 3 weeks, 1, 10, 100 nmol per day sc", "result": "improves bone strength"}
    ]}
  ]
}
